Source: patent US20100216875A1, “METHODS OF TREATING ALZHEIMER'S DISEASE” (priority 2006, published 2010)
Entries after “also recorded” stand apart in the source; their conditions may differ.

Experiments:
muscular dystrophy = details: Phase I through III trials, Japan; cited from earlier work
[1] = system: primary neuronal chromaffin cells; test: Aβ secretion by primary neuronal chromaffin cell cultures; type: cell-based, bovine; details: 50 μM for 18 hours
Experimental: Neuronal bovine chromaffin cells in primary culture can be used to select compounds that affect Aβ in the regulated or constitutive pathway. Regulated secretory Aβ is determined by measuring Aβ in the cell culture media after inducing the cells to secrete using a triggering stimulus, such as KCl. The constitutive secretory Aβ is determined by measuring Aβ in cell culture media (also called “conditioned media”) from resting cells. […] Regulated secretion was induced by exposing the cells to KCl (50 mM) for 15 minutes. […] Treated cells (+) received CA074Me (50 μM) for 18 hours. The Aβ40 produced by regulated secretion of the treated cells is about 50% less than that produced from regulated secretion by untreated cells. […]
Reversible cathepsin B compounds that inhibited Aβ production in isolated secretory vesicles by at least 50% at 10 μM were tested for reduction of Aβ secreted from the regulated secretory pathway of primary neuronal chromaffin cells. […] Cells were incubated with inhibitors (first at 50 μM) for about 18 hours, and then KCl-induced secretion of Aβ from the regulated secretory pathway was analyzed, by incubating cells in 50 mM KCl for about 15 minutes and measurement of Aβ peptides in the secretion medium Inhibitor effects were more readily detected during increased rates of Aβ production, which can be induced by treatment of cells with PMA (phorbol myristate acetate, 100 nM). […]

[2] = system: Aβ40 production from endogenous APP in regulated secretory vesicles isolated from chromaffin cells; test: Aβ production from endogenous APP in isolated regulated secretory vesicles; type: biochemical, bovine; details: inhibitor 10 μM
Experimental: Regulated secretory vesicles isolated from chromaffin cells naturally produce Aβ from endogenous APP when incubated at 37° C. in vitro for several hours. These vesicles can be used as an in vitro screen for compounds that inhibit Aβ production. […] The effects of cathepsin B inhibitors, CA074 (10 μM, ♦) and CA074Me (10 μM, □), on the production of Aβ40 from endogenous APP in regulated secretory vesicles isolated from chromaffin cells was evaluated in time course studies. […] Each inhibitor was tested in triplicate; values represent x±sem (*statistically significant with p<0.05).
Cathepsin B compounds that were effective inhibitors of endogenous II-secretase activity were tested for inhibition of Aβ peptide production in regulated secretory vesicles. The effect of reversible cathepsin B compounds on production of Aβ40 and Aβ42 in isolated chromaffin vesicles was tested by incubating candidate inhibitors (at 10 μM) with lysed chromaffin vesicles under identical conditions as for the β-secretase assay for 8 hours. […] After incubation, Aβ40 and Aβ42 was measured by ELISA assays, as described for measurement of Aβ peptides in brain extracts. Each candidate inhibitor was assayed in triplicate.

[3] = system: β-secretase activity as measured by the APP-derived CTFβ fragment; test: guinea pig brain CTFβ (β-secretase activity) after icv infusion; type: in vivo; details: 0.15 mg/kg/day infused for 7 days; western blot
Experimental: To better evaluate the effects of CA074Me on β-secretase activity, relative brain levels of CTRβ were assessed by western blots. The CTRβ fragment results from processing of APP at the β-secretase site, which produces the C-terminal β-secretase fragment (CTFβ) of 12 kDA on SDS-PAGE gels.
Brains from animals described in relation to FIG. 10 were extracted and analyzed for CTFβ by […].
Cathepsin B inhibitors were administered directly into the brain by icy infusion with minipumps in time course studies at different doses. Guinea pigs were infused with compounds using Alzet pumps (2.5 μl/hr, with compounds at 1 mg/ml in saline) for 7 and 30 days, and other times. This initial dose of compound was selected because E64d and CA074Me are effective at this dose. Each treatment group consisted of eight to ten guinea pigs, including the vehicle control group.

Row | SMILES | efficacy in muscular dystrophy (muscular dystrophy) | reduction of Aβ40 produced by regulated secretion ([1]; KCl (50 mM) 15 minutes, vs untreated cells) | Aβ40 produced by constitutive secretion vs untreated cells ([1]; resting cells) | effect on Aβ production in isolated regulated secretory vesicles [2] | decrease in the amount of brain CTFβ [3] [%]
1 | CCOC(=O)[C@H]1O[C@@H]1C(=O)N[C@@H](CC(C)C)C(=O)NCCC(C)C [E64d] | lack of efficacy | – | – | – | –
2 | CCCNC(=O)[C@H]1O[C@@H]1C(=O)N[C@H](C(=O)N1CCC[C@H]1C(=O)OC)[C@@H](C)CC [CA074Me] | – | about 50% | the same | inhibited; also recorded: block Aβ production | 50
